Assay results: US12447170B2, “Use of maribavir in treatment regimens” (priority 2021, dated 2025)
“Also recorded” adds a separate entry of the source.

What was measured:
[1] = target: CYP2C19 (Homo sapiens, UniProt P33261); assay: Time-dependent CYP inhibition (IC50 shift, 30 minute pre-incubation with HLM +/- NADPH); assay type: in vitro ADME; set-up: from tissue; settings: up to 100 μM
Experimental: (§1) Time-dependent inhibition (TDI) potentials for various CYP enzymes were evaluated by a 30 minute pre-incubation of maribavir with HLM in the presence and absence of nicotinamide-adenine dinucleotide […] (NADPH) followed by a CYP enzyme activity assay.

[2] = target: CYP2C9 (Homo sapiens, UniProt P11712); assay: as above; assay type: in vitro ADME; set-up: from tissue; settings: up to 100 μM
Sequence of CYP2C9 (P11712 whole entry): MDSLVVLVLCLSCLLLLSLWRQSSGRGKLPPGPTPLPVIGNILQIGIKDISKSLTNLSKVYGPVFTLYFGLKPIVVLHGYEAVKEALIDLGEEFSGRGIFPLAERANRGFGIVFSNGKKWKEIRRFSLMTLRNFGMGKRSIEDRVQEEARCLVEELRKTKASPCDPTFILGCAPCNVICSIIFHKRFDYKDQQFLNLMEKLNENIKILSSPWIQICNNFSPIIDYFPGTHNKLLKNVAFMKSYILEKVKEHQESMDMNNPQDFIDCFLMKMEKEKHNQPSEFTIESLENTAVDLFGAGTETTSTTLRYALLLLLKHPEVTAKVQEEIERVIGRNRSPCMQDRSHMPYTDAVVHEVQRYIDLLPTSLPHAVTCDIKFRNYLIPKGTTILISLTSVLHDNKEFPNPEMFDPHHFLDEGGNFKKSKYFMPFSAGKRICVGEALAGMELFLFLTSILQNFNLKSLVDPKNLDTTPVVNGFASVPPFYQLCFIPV
Experimental: as §1

[3] = target: CYP2D6 (Homo sapiens, UniProt P10635); assay: as above; assay type: in vitro ADME; set-up: from tissue; settings: up to 100 μM
Sequence of CYP2D6 (P10635 whole entry): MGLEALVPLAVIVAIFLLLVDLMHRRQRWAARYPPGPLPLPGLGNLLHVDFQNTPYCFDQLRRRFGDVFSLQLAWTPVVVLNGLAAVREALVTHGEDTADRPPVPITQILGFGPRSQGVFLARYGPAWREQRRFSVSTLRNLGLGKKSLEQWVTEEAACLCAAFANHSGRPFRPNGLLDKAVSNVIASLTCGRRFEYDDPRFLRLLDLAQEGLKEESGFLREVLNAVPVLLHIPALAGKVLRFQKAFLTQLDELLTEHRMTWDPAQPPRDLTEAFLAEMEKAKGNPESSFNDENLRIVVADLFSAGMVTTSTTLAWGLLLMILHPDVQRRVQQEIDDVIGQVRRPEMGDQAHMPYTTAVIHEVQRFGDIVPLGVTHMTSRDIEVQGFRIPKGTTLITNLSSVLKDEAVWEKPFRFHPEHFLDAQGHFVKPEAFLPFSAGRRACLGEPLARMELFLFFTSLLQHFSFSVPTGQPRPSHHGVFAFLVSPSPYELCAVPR
Experimental: as §1

[4] = target: T1, CYP1A2 (Homo sapiens, UniProt P05177); assay: as above; assay type: in vitro ADME; set-up: from tissue; settings: up to 100 μM
T1 sequence (P05177 1-516): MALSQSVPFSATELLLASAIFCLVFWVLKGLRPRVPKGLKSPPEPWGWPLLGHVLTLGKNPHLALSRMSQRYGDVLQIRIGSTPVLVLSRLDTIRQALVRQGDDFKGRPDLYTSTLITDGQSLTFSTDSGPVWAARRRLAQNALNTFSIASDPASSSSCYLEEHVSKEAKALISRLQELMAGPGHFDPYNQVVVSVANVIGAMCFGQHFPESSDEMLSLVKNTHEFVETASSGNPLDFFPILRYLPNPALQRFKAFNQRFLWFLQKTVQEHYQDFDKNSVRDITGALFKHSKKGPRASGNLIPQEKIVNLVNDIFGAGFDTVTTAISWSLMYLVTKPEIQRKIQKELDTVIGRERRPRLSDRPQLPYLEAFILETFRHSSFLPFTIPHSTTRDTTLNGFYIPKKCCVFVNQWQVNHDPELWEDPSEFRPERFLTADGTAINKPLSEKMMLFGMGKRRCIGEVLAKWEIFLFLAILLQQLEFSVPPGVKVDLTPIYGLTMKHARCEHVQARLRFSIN
Experimental: as §1

[5] = target: T2, CYP2C8 (Homo sapiens, UniProt P10632); assay: as above; assay type: in vitro ADME; set-up: from tissue; settings: up to 100 μM
T2 sequence (P10632 1-490): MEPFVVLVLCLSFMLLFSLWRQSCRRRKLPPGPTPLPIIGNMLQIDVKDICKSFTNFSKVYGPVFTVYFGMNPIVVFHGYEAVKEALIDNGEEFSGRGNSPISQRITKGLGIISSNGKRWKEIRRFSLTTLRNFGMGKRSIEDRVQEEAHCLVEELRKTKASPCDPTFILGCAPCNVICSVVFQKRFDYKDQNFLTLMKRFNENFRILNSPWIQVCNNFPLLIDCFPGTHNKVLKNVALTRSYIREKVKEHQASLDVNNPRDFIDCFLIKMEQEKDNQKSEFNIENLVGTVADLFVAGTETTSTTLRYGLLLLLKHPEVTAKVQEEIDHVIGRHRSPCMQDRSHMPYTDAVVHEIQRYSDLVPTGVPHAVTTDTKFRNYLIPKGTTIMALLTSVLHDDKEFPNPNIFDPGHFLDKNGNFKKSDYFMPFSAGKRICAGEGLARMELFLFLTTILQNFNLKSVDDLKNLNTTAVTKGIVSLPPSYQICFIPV
Experimental: as §1

[6] = PBPK simulation of maribavir with ketoconazole (CYP3A4 inhibitor); set-up: species or system human
Experimental: A comparison of observed and predicted plasma concentrations of maribavir following a single oral dose of 400 mg administered in the absence of ketoconazole (a CYP3A4 inhibitor) and 1 hour after a single 400 mg dose of ketoconazole to healthy subjects was performed.

[7] = clinical; settings: human, in vivo
[8] = Observed clinical interaction of maribavir with rifampicin; assay type: in vivo, human; settings: maribavir 400 mg BID with/without rifampicin 600 mg QD
Experimental: A comparison of observed and predicted plasma concentrations of maribavir following multiple oral doses of 400 mg administered in the absence of rifampicin and during concurrent treatment with rifampicin was performed. Subjects took maribavir 400 mg BID on Days 1-3 (5 doses), then rifampicin 600 mg QD on Days 4 through 12, followed by both maribavir 400 mg (BID) and rifampicin 600 mg QD on Days 13 and 14, with final doses of maribavir and rifampicin on the morning of Day 15.

[9] = clinical; settings: human, in vivo; for AUC(0-t): AUC(0-12 h)
Experimental: A combination of in vitro data and clinical pharmacokinetic data obtained following a single dose of 400 mg maribavir were used to develop the PBPK model. […] The Cmax was marginally under predicted, which could be expected because the PBPK model was optimized for better prediction of C12h.
A comparison of observed and predicted plasma concentrations of maribavir following single oral doses of 800 mg and 1600 mg to healthy patients […]. […] The simulated and observed maribavir concentrations were in reasonable agreement.
A comparison of observed and predicted plasma concentrations of maribavir following multiple oral 400 mg BID doses of maribavir was performed. […] The simulated and observed maribavir concentrations were in reasonable agreement.

[10] = maribavir 400 mg single dose 1 hour after ketoconazole 400 mg
[11] = 400 mg, observed Geometric mean

Sequence of CYP2C19 (P33261 whole entry): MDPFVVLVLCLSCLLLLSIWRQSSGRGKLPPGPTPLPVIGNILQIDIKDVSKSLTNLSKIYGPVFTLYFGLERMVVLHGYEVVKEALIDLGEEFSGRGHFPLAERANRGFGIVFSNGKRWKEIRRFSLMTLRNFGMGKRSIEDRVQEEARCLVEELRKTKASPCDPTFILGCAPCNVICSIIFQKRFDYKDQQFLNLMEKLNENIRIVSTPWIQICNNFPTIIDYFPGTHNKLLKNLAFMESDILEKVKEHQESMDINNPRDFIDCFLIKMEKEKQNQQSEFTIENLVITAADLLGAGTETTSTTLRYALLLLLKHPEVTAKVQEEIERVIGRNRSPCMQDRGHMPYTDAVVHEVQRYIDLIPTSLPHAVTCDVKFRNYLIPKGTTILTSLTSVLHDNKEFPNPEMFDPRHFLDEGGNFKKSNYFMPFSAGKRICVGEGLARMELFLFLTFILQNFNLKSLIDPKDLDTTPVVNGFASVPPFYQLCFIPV

SMILES: CC(C)Nc1nc2cc(Cl)c(Cl)cc2n1[C@H]1O[C@@H](CO)[C@H](O)[C@@H]1O [maribavir, (2S,3S,4R,5S)-2-(5,6-dichloro-2-(isopropylamino)-1H-benzo[d]imidazol-1-yl)-5-(hydroxymethyl)tetrahydrofuran-3,4-diol]
- time-dependent inhibition (TDI) of CYP2C19 [1]: not a time-dependent inhibitor; also recorded: unlikely a TDI
- time-dependent inhibition (TDI) of CYP2C9 [2]: not a time-dependent inhibitor; also recorded: unlikely a TDI
- time-dependent inhibition (TDI) of CYP2D6 [3]: not a time-dependent inhibitor; also recorded: unlikely a TDI
- time-dependent inhibition (TDI) of CYP1A2 [4]: not a time-dependent inhibitor; also recorded: unlikely a TDI
- time-dependent inhibition (TDI) of CYP2C8 [5]: not a time-dependent inhibitor; also recorded: unlikely a TDI
- AUC(0-∞), GEOMEAN RATIO PREDICTED/OBSERVED [6, 10]: 0.77
- AUC(0-∞), MEAN RATIO PREDICTED/OBSERVED [6, 10]: 0.78
- Cmax, GEOMEAN RATIO PREDICTED/OBSERVED [6, 10]: 0.65
- Cmax, MEAN RATIO PREDICTED/OBSERVED [6, 10]: 0.66
- Ratio AUC(0-∞), GEOMEAN RATIO PREDICTED/OBSERVED ([6]; with/without ketoconazole): 1.00
- Ratio AUC(0-∞), MEAN RATIO PREDICTED/OBSERVED ([6]; with/without ketoconazole): 0.99
- Ratio Cmax, GEOMEAN RATIO PREDICTED/OBSERVED ([6]; with/without ketoconazole): 1.06
- Ratio Cmax, MEAN RATIO PREDICTED/OBSERVED ([6]; with/without ketoconazole): 1.05
- half-life [7]: 5 to 7 h
- CL renal ([7]; po): 0.85 mL/min
- effect of crushing the tablet or antacids on bioavailability ([7]; po): wasn't affected
- effect of food on exposure ([7]; po): unaffected
- time to peak concentrations ([7]; po): 1 to 3 h
- Ratio AUC(0-12 h), observed Mean [8]: 0.41
- Ratio C12 h, observed Mean [8]: 0.17
- Ratio Cmax, observed Mean [8]: 0.65
- AUC(0-∞), observed Mean ([9]; 400 mg): 126000 ng·h/mL
- AUC(0-t) ([9]; 400 mg, observed): 86600 ng·h/mL
- AUC(0-t) ([9]; 400 mg, observed Mean): 89900 ng·h/mL
- AUC(0-inf) [9, 11]: 119000 ng·h/mL
- AUC(0-inf) ([9]; 400 mg, observed Mean): 89900 ng·h/mL
- Cmax [9, 11]: 19400 ng/mL
- Cmax ([9]; 400 mg, observed Mean): 16900 ng/mL
- Cmax ([9]; 400 mg, observed, row headed % CV): 16200 ng/mL
- AUC(0-inf) ([9]; po, 400 mg, observed Mean): 97800 ng·h/mL
- Cmax ([9]; po, 400 mg, observed Mean): 16700 ng/mL
- AUC(0-inf) ([9]; po, 800 mg, observed Mean): 183000 ng·h/mL
- Cmax ([9]; po, 800 mg, observed Mean): 26400 ng/mL
- AUC(0-inf) ([9]; po, 1600 mg, observed Mean): 437000 ng·h/mL
- Cmax ([9]; po, 1600 mg, observed Mean): 48800 ng/mL
